This passage reports Ki results from ChEMBL document CHEMBL5576121, “Halogen Bonding Hot Spots as a Constraint in Virtual Screening: A Case Study of 5-HT7R” (J Med Chem, 2024).

Molecules are shown by their SMILES.

5-hydroxytryptamine receptor 7, sequence (P34969 whole entry): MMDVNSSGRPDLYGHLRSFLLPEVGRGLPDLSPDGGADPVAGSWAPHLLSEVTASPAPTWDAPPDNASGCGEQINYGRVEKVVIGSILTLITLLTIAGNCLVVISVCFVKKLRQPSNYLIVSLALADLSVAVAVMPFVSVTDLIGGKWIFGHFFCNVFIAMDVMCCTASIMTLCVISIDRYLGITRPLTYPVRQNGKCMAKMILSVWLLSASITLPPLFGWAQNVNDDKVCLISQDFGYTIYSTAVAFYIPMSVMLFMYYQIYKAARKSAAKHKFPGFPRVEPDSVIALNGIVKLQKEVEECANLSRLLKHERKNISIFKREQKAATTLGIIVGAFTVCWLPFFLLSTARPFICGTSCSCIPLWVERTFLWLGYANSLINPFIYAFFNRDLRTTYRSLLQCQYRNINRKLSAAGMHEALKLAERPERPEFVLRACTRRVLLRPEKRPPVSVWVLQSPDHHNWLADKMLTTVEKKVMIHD

This assay concerns the target 5-hydroxytryptamine receptor 7 (Homo sapiens, UniProt P34969). The assay can be described thus: Displacement of [3H]-5-CT from human 5-HT7b receptor expressed in HEK293 cell membranes incubated for 1 hr by Microbeta Topcount instrument based analysis.
As for `OC(COc1ccc2c(c1)CCC2)CN1CCN(c2cccc(Cl)c2)CC1` (stereo not drawn), the inhibition constant (Ki) (as a rule, the equilibrium dissociation constant of an inhibitor or competing ligand from its target) was 285 nM. In the case of `CCCc1ccc(OCC(O)CN2CCN(c3ccccc3)CC2)cc1` (stereo not drawn), the inhibition constant (Ki) is 1090 nM.

`CCC(=O)N1c2ccccc2CC1C(=O)NCCCN1CCN(c2ccccc2)CC1` (stereo not drawn) came in with a Ki of 7130 nM. In the case of `CCC(=O)N1c2ccccc2CC1C(=O)NCCCN1CCN(c2cccc(Cl)c2)CC1` (stereo not drawn), the affinity corresponds to a Ki of 687 nM.

Take `CC(=O)c1ccc(OCC(O)CN2CCN(c3ccc(Cl)cc3)CC2)cc1` (stereo not drawn): the inhibition constant (Ki) was 7130 nM. For `OC(COc1ccc2c(c1)CCC2)CN1CCN(c2ccccc2)CC1` (stereo not drawn) the value was 587 nM; for `CC(=O)c1ccc(OCC(O)CN2CCN(c3ccccc3Cl)CC2)cc1` (stereo not drawn), 4670 nM.

In turn, `CCCc1ccc(OCC(O)CN2CCN(c3cccc(Cl)c3)CC2)cc1` (stereo not drawn) had an inhibitory constant (Ki) of 360 nM. Regarding `COc1ccc(OC)c(COCC(O)CN2CCN(c3ccccc3)CC2)c1` (stereo not drawn), the inhibition constant Ki worked out at 2300 nM. `COc1ccc(OC)c(COCC(O)CN2CCN(c3cccc(Cl)c3)CC2)c1` (stereo not drawn): the inhibitory constant (Ki) amounted to 65 nM. Regarding `OC(COc1ccc2c(c1)CCC2)CN1CCN(c2ccc(Cl)cc2)CC1` (stereo not drawn), the Ki amounted to 1520 nM.

`CC(=O)c1ccc(OCC(O)CN2CCN(c3cccc(Cl)c3)CC2)cc1` (stereo not drawn) registered a Ki of 471 nM. For the compound `CC(=O)c1ccc(OCC(O)CN2CCN(c3ccccc3)CC2)cc1` (stereo not drawn), the inhibition constant Ki is 1970 nM.
